Data as given in PubChem BioAssay AID2060887 (Molecular Pharmacology Branch, DTP, NCI, 2025).
Blank lines part the entries; values can stand above or below the molecule they belong to.

System: 782815-120-R-J1-PDC complex spheroid viability
Experiment: Anticancer human tumor 782815-120-R-J1-PDC patient-derived colon adenocarcinoma cell line growth inhibition [RAS]
Settings: for IC50: curve of first compound; for viability, T/C: stronger effect = lower value
Summary of the method: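 Agents were tested in combination matrices in half-log decrements from a top concentration at or near clinical Cmax (10 microM if undetermined). Targets were multi-cell spheroids of tumour lines plus HUVEC and MSC stromal cells.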
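Note: spheroids exposed to compounds for 7 days before reading.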
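Throughout, for viability, T/C: 100% = DMSO vehicle control viability.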

- IC50 (second compound 0.0316 µM): > 300 nM
- IC50 (second compound 0.1 µM): > 300 nM
- IC50 (second compound 0.316 µM): > 300 nM
- IC50 (second compound 1 µM): > 300 nM
- IC50 (second compound 3.16 µM): > 300 nM
- IC50 (second compound 10 µM): > 300 nM
Structure (SMILES): CC1(C)CCC(Nc2ncc(C(F)(F)F)c(-c3c[nH]c4c(P(C)(C)=O)c(C#N)ccc34)n2)CN1 (centres undefined) + C#Cc1c(F)ccc2cc(O)cc(-c3ncc4c(N5CC6CCC(C5)N6)nc(OCC56CCCN5CC(F)C6)nc4c3F)c12
- viability, T/C (second compound 0.0316 µM, first compound 0.000949 µM): 98.2%
- viability, T/C (second compound 0.0316 µM, first compound 0.003 µM): 101%
- viability, T/C (second compound 0.0316 µM, first compound 0.00949 µM): 90.6%
- viability, T/C (second compound 0.0316 µM, first compound 0.03 µM): 65.4%
- viability, T/C (second compound 0.0316 µM, first compound 0.0949 µM): 58.1%
- viability, T/C (second compound 0.0316 µM, first compound 0.3 µM): 60.2%
- viability, T/C (second compound 0.1 µM, first compound 0.000949 µM): 93.2%
- viability, T/C (second compound 0.1 µM, first compound 0.003 µM): 98.4%
- viability, T/C (second compound 0.1 µM, first compound 0.00949 µM): 84.4%
- viability, T/C (second compound 0.1 µM, first compound 0.03 µM): 70.2%
- viability, T/C (second compound 0.1 µM, first compound 0.0949 µM): 61.2%
- viability, T/C (second compound 0.1 µM, first compound 0.3 µM): 56.9%
- viability, T/C (second compound 0.316 µM, first compound 0.000949 µM): 96.5%
- viability, T/C (second compound 0.316 µM, first compound 0.003 µM): 92.9%
- viability, T/C (second compound 0.316 µM, first compound 0.00949 µM): 90.4%
- viability, T/C (second compound 0.316 µM, first compound 0.03 µM): 64.8%
- viability, T/C (second compound 0.316 µM, first compound 0.0949 µM): 61.8%
- viability, T/C (second compound 0.316 µM, first compound 0.3 µM): 57.9%
- viability, T/C (second compound 1 µM, first compound 0.000949 µM): 95%
- viability, T/C (second compound 1 µM, first compound 0.003 µM): 99.6%
- viability, T/C (second compound 1 µM, first compound 0.00949 µM): 74.7%
- viability, T/C (second compound 1 µM, first compound 0.03 µM): 65.2%
- viability, T/C (second compound 1 µM, first compound 0.0949 µM): 64.3%
- viability, T/C (second compound 1 µM, first compound 0.3 µM): 58.5%
- viability, T/C (second compound 3.16 µM, first compound 0.000949 µM): 90.8%
- viability, T/C (second compound 3.16 µM, first compound 0.003 µM): 94.1%
- viability, T/C (second compound 3.16 µM, first compound 0.00949 µM): 80%
- viability, T/C (second compound 3.16 µM, first compound 0.03 µM): 65.2%
- viability, T/C (second compound 3.16 µM, first compound 0.0949 µM): 57.6%
- viability, T/C (second compound 3.16 µM, first compound 0.3 µM): 63.5%
- viability, T/C (second compound 10 µM, first compound 0.000949 µM): 93.9%
- viability, T/C (second compound 10 µM, first compound 0.003 µM): 98.8%
- viability, T/C (second compound 10 µM, first compound 0.00949 µM): 75.4%
- viability, T/C (second compound 10 µM, first compound 0.03 µM): 69.6%
- viability, T/C (second compound 10 µM, first compound 0.0949 µM): 65%
- viability, T/C (second compound 10 µM, first compound 0.3 µM): 60.4%

- IC50 (second compound 0.00316 µM): > 1000 nM
- IC50 (second compound 0.01 µM): > 1000 nM
- IC50 (second compound 0.0316 µM): > 1000 nM
- IC50 (second compound 0.1 µM): > 1000 nM
- IC50 (second compound 0.316 µM): > 1000 nM
- IC50 (second compound 1 µM): > 1000 nM
Structure (SMILES): C=CC(=O)Nc1cc(Nc2nccc(-c3cn(C)c4ccccc34)n2)c(OC)cc1N(C)CCN(C)C + C=CC(=O)N1CCN(c2nc(OCC3CCCN3C)nc3c(F)c(-c4nc(N)cc(C)c4C(F)(F)F)c(Cl)cc23)C(C)C1
- viability, T/C (second compound 0.00316 µM, first compound 0.00316 µM): 92.7%
- viability, T/C (second compound 0.00316 µM, first compound 0.01 µM): 98.3%
- viability, T/C (second compound 0.00316 µM, first compound 0.0316 µM): 101%
- viability, T/C (second compound 0.00316 µM, first compound 0.1 µM): 95%
- viability, T/C (second compound 0.00316 µM, first compound 0.316 µM): 92.9%
- viability, T/C (second compound 0.00316 µM, first compound 1 µM): 99.8%
- viability, T/C (second compound 0.01 µM, first compound 0.00316 µM): 91.9%
- viability, T/C (second compound 0.01 µM, first compound 0.01 µM): 92%
- viability, T/C (second compound 0.01 µM, first compound 0.0316 µM): 91.8%
- viability, T/C (second compound 0.01 µM, first compound 0.1 µM): 91.6%
- viability, T/C (second compound 0.01 µM, first compound 0.316 µM): 93.8%
- viability, T/C (second compound 0.01 µM, first compound 1 µM): 91%
- viability, T/C (second compound 0.0316 µM, first compound 0.00316 µM): 98.3%
- viability, T/C (second compound 0.0316 µM, first compound 0.01 µM): 101%
- viability, T/C (second compound 0.0316 µM, first compound 0.0316 µM): 98.1%
- viability, T/C (second compound 0.0316 µM, first compound 0.1 µM): 92.1%
- viability, T/C (second compound 0.0316 µM, first compound 0.316 µM): 92.9%
- viability, T/C (second compound 0.0316 µM, first compound 1 µM): 88.5%
- viability, T/C (second compound 0.1 µM, first compound 0.00316 µM): 100%
- viability, T/C (second compound 0.1 µM, first compound 0.01 µM): 88.6%
- viability, T/C (second compound 0.1 µM, first compound 0.0316 µM): 96%
- viability, T/C (second compound 0.1 µM, first compound 0.1 µM): 92.9%
- viability, T/C (second compound 0.1 µM, first compound 0.316 µM): 109%
- viability, T/C (second compound 0.1 µM, first compound 1 µM): 90.7%
- viability, T/C (second compound 0.316 µM, first compound 0.00316 µM): 101%
- viability, T/C (second compound 0.316 µM, first compound 0.01 µM): 95.1%
- viability, T/C (second compound 0.316 µM, first compound 0.0316 µM): 92.3%
- viability, T/C (second compound 0.316 µM, first compound 0.1 µM): 95.6%
- viability, T/C (second compound 0.316 µM, first compound 0.316 µM): 93.9%
- viability, T/C (second compound 0.316 µM, first compound 1 µM): 91.6%
- viability, T/C (second compound 1 µM, first compound 0.00316 µM): 96.6%
- viability, T/C (second compound 1 µM, first compound 0.01 µM): 90.1%
- viability, T/C (second compound 1 µM, first compound 0.0316 µM): 90.3%
- viability, T/C (second compound 1 µM, first compound 0.1 µM): 96%
- viability, T/C (second compound 1 µM, first compound 0.316 µM): 93.4%
- viability, T/C (second compound 1 µM, first compound 1 µM): 91.7%
